# Measured values: patent publication US7320996B2, “Indolinone protein kinase inhibitors and cyclooxygenase inhibitors for use in combination therapy for the treatment of cancer” (Sugen, Inc, priority 2001, dated 2008)
# Legend:
# [1] = molecular target: T1, PDGFR-β (NIH 3T3 cell lysate) (Homo sapiens, UniProt P09619); assay: PDGFR bioassay, ELISA; assay type: biochemical; conditions: read-out: bio PDGF IC50
# T1 construct: host or cells: NIH 3T3
# Description: Corning 96-well Elisa plates • 2. 28D4C10 monoclonal anti-PDGFR antibody (SUGEN, Inc.). • 3. PBS. • 4. TBST Buffer. • 5. Blocking Buffer (same as for EGFR bioassay). • 6. PDGFR-β expressing NIH 3T3 cell lysate (SUGEN, Inc.). • 7. TBS Buffer. • 8. TBS+10% DMSO. • 9. ATP. • 10. MnCl2. • 11. Kinase buffer phosphorylation mix: for 10 ml, mix 250 μl 1M TRIS, 200 μl 5M NaCl, 100 μl 1M MnCl2 and 50 μl 100 mM Triton X-100 in enough dH2O to make 10 ml. • 12. NUNC 96-well V bottom polypropylene plates. • 13. EDTA. • 14. Rabbit polyclonal anti-phosphotyrosine serum (SUGEN, Inc.). • 15. Goat anti-rabbit IgG peroxidase conjugate (Biosource Cat. No. ALI0404). • 16. ABTS. • 17. Hydrogen peroxide, 30% solution. • 18. ABTS/H2O2. • 19. 0.2 M HCl. Procedure: • 1. Coat Corning 96 well ELISA plates with 0.5 μg 28D4C10 in 100 μl PBS per well, store overnight at 4° C. • 2. Remove unbound 28D4C10 from wells by inverting plate to remove liquid. • Wash 1×with dH2O. Pat the plate on a paper towel to remove excess liquid. • 3. Add 150 μl of Blocking Buffer to each well. Incubate for 30 min. at room temperature with shaking. • 4. Wash plate 3×with deionized water, then once with TBST. Pat plate on a paper towel to remove excess liquid and bubbles. • 5. Dilute lysate in HNTG (10 μg lysate/100 μl HNTG). • 6. Add 100 μl of diluted lysate to each well. Shake at room temperature for 60 min. • 7. Wash plates as described in Step 4. • 8. Add 80 μl working kinase buffer mix to ELISA plate containing captured PDGFR. • 9. […] Add 10 μl diluted test compound to ELISA plate. To control wells, add 10 μl TBS+10% DMSO. Incubate with shaking for 30 minutes at room temperature. • 11. Add 10 μl ATP directly to all wells except negative control well (final well volume should be approximately 100 μl with 20 μM ATP in each well.) Incubate 30 minutes with shaking. • 12. Stop reaction by adding 10 μl of EDTA solution to each well. • 13. Wash 4×with deionized water, twice with TBST. • 14. Add 100 μl anti-phosphotyrosine (1:3000 dilution in TBST) per well. Incubate with shaking for 30-45 min. at room temperature. • 15. Wash as in Step 4. • 16. […] Incubate with shaking for 30 min. at room temperature. • 17. Wash as in Step 4. • 18. Add 100 μl of ABTS/H2O2 solution to each well. • 19. Incubate 10 to 30 minutes with shaking. Remove any bubbles. • 20. If necessary stop reaction with the addition of 100 μl 0.2 M HCl per well. • 21.
# EGFR = EGFR (Homo sapiens, UniProt P00533); assay: cell EGF assay; assay type: cell-based
# Sequence of EGFR (P00533 25-1210, species assumed): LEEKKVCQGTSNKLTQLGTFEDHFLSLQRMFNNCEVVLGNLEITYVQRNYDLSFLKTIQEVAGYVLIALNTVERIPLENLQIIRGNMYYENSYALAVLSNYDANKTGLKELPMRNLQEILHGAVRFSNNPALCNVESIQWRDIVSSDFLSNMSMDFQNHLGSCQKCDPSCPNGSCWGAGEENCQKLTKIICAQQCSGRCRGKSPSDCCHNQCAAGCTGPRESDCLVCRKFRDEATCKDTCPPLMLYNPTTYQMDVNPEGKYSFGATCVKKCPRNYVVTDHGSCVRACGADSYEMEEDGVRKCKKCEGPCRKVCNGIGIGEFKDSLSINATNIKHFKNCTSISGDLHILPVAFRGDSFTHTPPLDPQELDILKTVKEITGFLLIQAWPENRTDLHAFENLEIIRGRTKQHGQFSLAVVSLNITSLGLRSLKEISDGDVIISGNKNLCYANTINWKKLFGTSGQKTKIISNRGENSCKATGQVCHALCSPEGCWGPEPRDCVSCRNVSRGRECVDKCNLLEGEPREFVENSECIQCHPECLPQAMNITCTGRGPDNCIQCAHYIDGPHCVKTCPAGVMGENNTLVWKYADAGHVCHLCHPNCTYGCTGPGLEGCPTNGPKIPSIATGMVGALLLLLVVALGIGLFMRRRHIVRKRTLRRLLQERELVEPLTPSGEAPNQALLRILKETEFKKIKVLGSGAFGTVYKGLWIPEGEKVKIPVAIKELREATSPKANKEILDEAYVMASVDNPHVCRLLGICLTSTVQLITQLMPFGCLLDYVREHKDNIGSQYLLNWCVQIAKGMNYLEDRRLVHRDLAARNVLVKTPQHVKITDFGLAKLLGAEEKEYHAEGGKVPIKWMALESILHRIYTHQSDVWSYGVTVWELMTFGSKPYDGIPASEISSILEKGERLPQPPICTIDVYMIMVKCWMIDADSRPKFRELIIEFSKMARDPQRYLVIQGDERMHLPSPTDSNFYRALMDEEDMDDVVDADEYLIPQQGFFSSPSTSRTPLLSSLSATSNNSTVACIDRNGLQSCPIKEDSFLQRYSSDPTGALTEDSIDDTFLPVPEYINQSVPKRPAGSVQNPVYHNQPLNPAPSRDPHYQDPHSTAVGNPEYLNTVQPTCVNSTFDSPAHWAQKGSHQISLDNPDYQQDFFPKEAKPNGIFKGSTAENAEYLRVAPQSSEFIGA
# Description: Several of the assays described herein are performed in an ELISA (Enzyme-Linked Immunosorbent […]) format (Voller, et al, 1980, “Enzyme-Linked Immunosorbent Assay,” Manual of Clinical Immunology, 2d ed., Rose and Friedman, Am. Soc. Of Microbiology, Washington, D.C., pp. 359-371). The general procedure is as follows: a compound of Formula (I) is introduced to cells expressing the test kinase, either naturally or recombinantly, for a selected period of time after which, if the test kinase is a receptor, a ligand known to activate the receptor is added. The cells are lysed and the lysate is transferred to the wells of an ELISA plate previously coated with a specific antibody recognizing the substrate of the enzymatic phosphorylation reaction. Non-substrate components of the cell lysate are washed away and the amount of phosphorylation on the substrate is detected with an antibody specifically recognizing phosphotyrosine compared with control cells that were not contacted with a test compound.
# Specifically, the results shown indicate the concentration of a test compound needed to cause a 50% reduction of the activity of the target PTK. Bioassays which have been or can be used to evaluate compounds are described in detail below.
# [2] = molecular target: T2, HER-2 kinase (EGFr/HER-2 chimera/3T3-C7 cell line) (Homo sapiens, UniProt P04626); assay: Cellular HER-2 kinase assay, whole-cell ELISA; assay type: cell-based; conditions: read-out: Her2 Kinase IC50
# T2 construct: fused on or other part: EGFR extracellular part, stimulated by EGF and captured by the anti-EGFR antibody SUMO1; P00533 (Epidermal growth factor receptor)
# T2 sequence (P04626 720-987 limits assumed, change not shown): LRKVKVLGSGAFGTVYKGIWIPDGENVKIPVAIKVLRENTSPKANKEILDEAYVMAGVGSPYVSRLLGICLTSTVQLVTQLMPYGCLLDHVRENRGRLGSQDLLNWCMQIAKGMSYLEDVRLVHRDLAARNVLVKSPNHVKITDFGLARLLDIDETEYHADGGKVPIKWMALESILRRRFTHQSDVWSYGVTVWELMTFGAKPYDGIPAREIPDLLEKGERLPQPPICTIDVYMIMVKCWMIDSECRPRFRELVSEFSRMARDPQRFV
# Description: This assay is used to measure HER-2 kinase activity in whole cells in an ELISA format.
# Fetal Bovine Serum (FBS, GIBCO Catalog #16000-044), heat inactivated in a water bath for 30 min. at 56° C. • 3. […] PBS. • 9. […] Corning 96-well ELISA Plates. • 12. NUNC 96-well V bottom polypropylene plates. • 13. […] SUMO 1: monoclonal anti-EGFR antibody (SUGEN, Inc.). • 15. TBST Buffer. • 16. Blocking Buffer: 5% Carnation Instant Milk® in PBS. • 17. […] Suspend powder in 100 uL of 10 mM HCl. Add 100 uL 10 mM NaOH. Add 800 uL PBS and transfer to an Eppendorf tube, store at −20° C. until ready to use. • 18. […] EDTA. • 20. Na3VO4. […] Boil in microwave for one minute (solution becomes clear). • Cool to room temperature. Adjust pH to 10. Repeat heating/cooling cycle until pH remains at 10. • 21. 200 mM Na4P2O7. • 22. Rabbit polyclonal antiserum specific for phosphotyrosine (anti-Ptyr antibody, SUGEN, Inc.). • 23. Affinity purified antiserum, goat anti-rabbit IgG antibody, peroxidase conjugate (Biosource Cat #ALI0404). • 24. ABTS Solution. • 25. 30% Hydrogen peroxide solution. • 26. ABTS/H2O2. • 27. 0.2 M HCl. Procedure: • 1. Coat Corning 96 well ELISA plates with SUMO1 at 1.0 ug per well in PBS, 100 ul final volume/well. Store overnight at 4° C. • 2. On day of use, remove coating buffer and wash plate 3 times with dH2O and once with TBST buffer. All washes in this assay should be done in this manner, unless otherwise specified. • 3. Add 100 ul of Blocking Buffer to each well. Incubate plate, with shaking, for 30 min. at room temperature. Just prior to use, wash plate. • 4. Use EGFr/HER-2 chimera/3T3-C7 cell line for this assay. • 5. Choose dishes having 80-90% confluence. Collect cells by trypsinization and centrifuge at 1000 rpm at room temperature for 5 min. • 6. Resuspend cells in starve medium and count with trypan blue. Viability above 90% is required. Seed cells in starve medium at a density of 2,500 cells per well, 90 ul per well, in a 96 well microtiter plate. Incubate seeded cells overnight at 37° under 5% CO2. • 7. Start the assay two days after seeding. • 8. Test compounds are dissolved in 4% DMSO. Samples are then further diluted directly on plates with starve-DMEM. Typically, this dilution will be 1:10 or greater. […] Incubate at 37° C. for 10 min. • 13. Remove test compound, EGF, and DMEM. Wash cells once with PBS. • 14. Transfer HNTG* to cells, 100 ul per well. Place on ice for 5 minutes. • Meanwhile, remove blocking buffer from ELISA plate and wash. • 15. Scrape cells from plate with a micropipettor and homogenize cell material by repeatedly aspirating and dispensing the HNTG* lysis buffer. Transfer lysate to a coated, blocked, washed ELISA plate. Or, use a Costar transfer cartridge to transfer lysate to the plate. • 16. Incubate, with shaking, at room temperature for 1 hr. • 17. Remove lysate, wash. Transfer freshly diluted anti-Ptyr antibody (1:3000 in TBST) to ELISA plate, 100 ul per well. • 18. Incubate, with shaking, at room temperature, for 30 min. • 19. Remove anti-Ptyr antibody, wash. Transfer freshly diluted BIOSOURCE antibody to ELISA plate (1:8000 in TBST, 100 ul per well). • 20. Incubate, with shaking, at room temperature for 30 min. • 21. Remove BIOSOURCE antibody, wash. Transfer freshly prepared ABTS/H2O2 solution to ELISA plate, 100 ul per well. • 22. […] Remove any bubbles. • 23. Stop reaction with the addition of 100 ul of 0.2M HCl per well. • 24.
# [3] = system: HT-29 human colon cancer cells; assay: HT-29 Model; assay type: in vivo, nude mice
# Description: Mice were injected subcutaneously in the left paw (1×10^6 tumor cells suspended in 30% Matrigel) and tumor volume was evaluated using a phlethysmometer twice a week for 30-60 days. Implantation of human colon cancer cells (HT-29) into nude mice produces tumors that will reach 0.6-2 ml between 30-50 days. […] The data are expressed as the mean+/−SEM. Student's and Mann-Whitney tests were used to assess differences between means using the InStat software package.
# The efficacy of both agents were determined by measuring tumor volume.
# [4] = system: HT-29 human colon cancer cells; assay: HT-29 Model; assay type: in vivo, nude mice; conditions: HT-29 assay A
# GST-Flk1 = molecular target: T3, GST-Flk1 (Mus musculus, UniProt P35918); assay: GST-FLK-1 bioassay (bio flkGST), ELISA; assay type: biochemical
# T3 construct: GST-Flk1cd purified from sf9 recombinant baculovirus transformation (SUGEN, Inc.); host or cells: Sf9 (baculovirus)
# T3 sequence (P35918 784-1345 limits assumed): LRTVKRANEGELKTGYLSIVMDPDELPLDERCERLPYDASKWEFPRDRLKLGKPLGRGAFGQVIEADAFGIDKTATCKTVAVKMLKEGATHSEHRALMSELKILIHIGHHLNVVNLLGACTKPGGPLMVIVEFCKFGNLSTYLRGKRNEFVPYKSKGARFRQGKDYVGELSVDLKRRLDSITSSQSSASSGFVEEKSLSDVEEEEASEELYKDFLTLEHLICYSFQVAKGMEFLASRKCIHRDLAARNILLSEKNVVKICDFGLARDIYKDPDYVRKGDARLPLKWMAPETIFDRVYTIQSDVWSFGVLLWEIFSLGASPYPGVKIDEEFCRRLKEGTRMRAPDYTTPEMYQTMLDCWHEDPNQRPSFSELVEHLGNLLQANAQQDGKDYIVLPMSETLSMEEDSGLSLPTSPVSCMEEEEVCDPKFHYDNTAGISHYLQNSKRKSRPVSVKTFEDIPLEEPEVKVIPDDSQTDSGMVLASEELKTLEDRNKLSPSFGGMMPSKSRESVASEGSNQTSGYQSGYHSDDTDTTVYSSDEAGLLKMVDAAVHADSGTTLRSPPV
# Description: This assay analyzes the tyrosine kinase activity of GST-Flk1 on poly(glu,tyr) peptides.
# • 1. […] Preparation of poly(glu,tyr)(pEY) coated assay plates: Coat 2 ug/well of poly(glu,tyr)(pEY) in 100 ul PBS, hold at room temperature for 2 hours or at 4° C. overnight. Cover plates well to prevent evaporation. • 4. […] When all reagents have dissolved, adjust the pH to 7.2 with HCl. Bring total volume to 1 L with dH2O. • 5. PBST Buffer: to 1 L of PBS Buffer, add 1.0 ml Tween-20. • 6. […] Adjust pH to 7.2 with HCl. Add 10 g BSA, stir to dissolve. Bring total volume to 1 L with dH2O. Filter to remove particulate matter. • 7. […] Adjust total volume to 1 L with PBS buffer, filter to remove particulate matter. • 8. 50 mM Hepes pH 7.5. • 9. GST-Flk1cd purified from sf9 recombinant baculovirus transformation (SUGEN, Inc.). • 10. 4% DMSO in dH2O. • 11. 10 mM ATP in dH2O. • 12. 40 mM MnCl2 • 13. […] Add 10 N NaOH until EDTA dissolves. Adjust pH to 8.0. Adjust total volume to 100 ml with dH2O. • 16. […] Anti-phosphotyrosine monoclonal antibody conjugated to horseradish peroxidase (PY99 HRP, Santa Cruz Biotech). • 18. 2,2′-Azinobis(3-ethylbenzthiazoline-6-sulfonic acid (ABTS, Moss, Cat. No. ABST). • 19. 10% SDS. Procedure: • 1. Coat Corning 96-well ELISA plates with 2 μg of polyEY peptide in sterile PBS as described in step 3 of Materials and Reagents. • 2. Remove unbound liquid from wells by inverting plate. Wash once with TBST. Pat the plate on a paper towel to remove excess liquid. • 3. Add 100 μl of 1% BSA in PBS to each well. Incubate, with shaking, for 1 hr. at room temperature. • 4. Repeat step 2. • 5. Soak wells with 50 mM HEPES (pH 7.5) (150 μl/well). • 6. Dilute test compound with dH2O/4% DMSO to 4 times the desired final assay concentration in 96-well polypropylene plates. • 7. Add 25 μl diluted test compound to ELISA plate. In control wells, place 25 μl of dH2O/4% DMSO. • 8. […] Add 25 μl 0.5M EDTA to negative control wells. • 10. Dilute GST-Flk1 to 0.005 μg (5 ng)/well with KDB. • 11. Add 50 μl of diluted enzyme to each well. • 12. Incubate, with shaking, for 15 minutes at room temperature. • 13. […] Wash 3×with TBST and pat plate on paper towel to remove excess liquid. • 15. […] Incubate, with shaking, for 90 min. at room temperature. • 16. Wash as in step 14. • 17. Add 100 μl of room temperature ABTS solution to each well. • 18. […] Remove any bubbles. • 19. Stop reaction by adding 20 μl of 10% SDS to each well. • 20.
# human cdk2/cyclin A = molecular target: T4, human cdk2/cyclin A (Homo sapiens, UniProt P24941); assay: CDK2/cyclin A scintillation proximity assay (cdk2spa); assay type: biochemical; conditions: read-out: cdk2spa C50
# T4 construct: host or cells: Sf9
# Description: Amersham Redivue [γ^33P] […] Amersham streptavidin coated polyvinyltoluene SPA beads (Amersham catalog #RPNQ0007). The beads should be reconstituted in PBS without magnesium or calcium, at 20 mg/ml. • 4. Activated cdk2/cyclin A enzyme complex purified from Sf9 cells (SUGEN, Inc.). • 5. Biotinylated peptide substrate (Debtide). […] The ultimate concentration per well will be 0.5 μM “cold” ATP, 0.1 μg Debtide and 0.2 μCi γ^33P ATP. • 7. […] 10 mM ATP in dH2O. • 9. 1M Tris, pH adjusted to 7.4 with HCl. • 10. 1M MgCl2. • 11. 1M DTT. • 12. […] 0.5M EDTA. • 14. […] Procedure: • 1. Prepare solutions of test compounds at 5×the desired final concentration in 5% DMSO. Add 10 ul to each well. For negative controls, use 10 ul 5% DMSO alone in wells. • 2. […] Add 20 ul enzyme to each well. • 4. Add 10 μL of 0.5 M EDTA to the negative control wells. • 5. To start kinase reaction, add 20 μL of peptide/ATP mixture to each well. • Incubate for 1 hr. without shaking. • 6. Add 200 μl stop solution to each well. • 7. Hold at least 10 min. • 8. […] Count plate using Trilux or similar reader.
# EGFR (A431 cell lysate) = molecular target: T5, EGFR (A431 cell lysate) (Homo sapiens, UniProt P00533); assay: EGFR bioassay, ELISA; assay type: biochemical; conditions: read-out: bio EGF IC50
# T5 construct: A431 cell lysate (SUGEN, Inc.); host or cells: A431
# T5 sequence (P00533 25-1210): as the sequence (P00533 25-1210, species assumed) above
# Description: This assay is used to the in vitro kinase activity of FGF1-R in an ELISA assay.
# Corning 96-well Elisa plates. • 2. SUMOL1 monoclonal anti-EGFR antibody (SUGEN, Inc.). • 3. PBS • 4. TBST Buffer • 5. Blocking Buffer: for 100 ml, mix 5.0 g Carnation Instant Non-fat Milk® with 100 ml of PBS. • 6. A431 cell lysate (SUGEN, Inc.). • 7. TBS Buffer: • 8.
# bring to 1 liter total volume with dH2O. • 9. […] This reagent should be made up immediately prior to use and kept on ice. • 10. 1.0 mM MnCl2. • 11. […] Prepare just prior to use, keep on ice. • 12. NUNC 96-well V bottom polypropylene plates. • 13. EDTA. • 14. Rabbit polyclonal anti-phosphotyrosine serum (SUGEN, Inc.). • 15. Goat anti-rabbit IgG peroxidase conjugate (Biosource Cat. No. ALI0404). • 16. ABTS. • 17. 30% Hydrogen peroxide. • 18. ABTS/H2O2 • 19. 0.2 M HCl. Procedure: • 1. Coat Corning 96 well ELISA plates with 0.5 μg SUMO1 in 100 μl PBS per well, store overnight at 4° C. • 2. Remove unbound SUMO1 from wells by inverting plate to remove liquid. Wash 1×with dH2O. Pat the plate on a paper towel to remove excess liquid. • 3. Add 150 μl of Blocking Buffer to each well. Incubate, with shaking, for 30 min. at room temperature. • 4. Wash plate 3×with deionized water, then once with TBST. Pat plate on a paper towel to remove excess liquid and bubbles. • 5. Dilute lysate in PBS (7 μg lysate/100 μl PBS). • 6. Add 100 μl of diluted lysate to each well. Shake at room temperature for 1 hr. • 7. Wash plates as in 4, above. • 8. Add 120 μl TBS to ELISA plate containing captured EGFR. • 9. […] Add 13.5 μl diluted test compound to ELISA plate. To control wells, add 13.5 μl TBS in 10% DMSO. • 11. Incubate, with shaking, for 30 minutes at room temperature. • 12. Add 15 μl phosphorylation mix to all wells except negative control well. Final well volume should be approximately 150 μl with 3 μM ATP/5 mM MnCl2 final concentration in each well. Incubate with shaking for 5 minutes. • 13. Stop reaction by adding 16.5 μl of EDTA solution while shaking. Shake for additional 1 min. • 14. Wash 4×with deionized water, 2×with TBST. • 15. Add 100 μl anti-phosphotyrosine (1:3000 dilution in TBST) per well. Incubate, with shaking, for 30-45 min. at room temperature. • 16. Wash as in 4, above. • 17. […] Incubate with shaking for 30 min. at room temperature. • 18. Wash as in 4, above. • 19. Add 100 μl of ABTS/H2O2 solution to each well. • 20. Incubate 5 to 10 minutes with shaking. Remove any bubbles. • 21. If necessary, stop reaction by adding 100 μl 0.2 M HCl per well. • 22.
# Lewis Lung tumors = assay: Lewis Lung Model; assay type: in vivo, mice
# Description: Mice were injected subcutaneously in the left paw (1×10^6 tumor cells suspended in 30% Matrigel) and tumor volume was evaluated using a phlethysmometer twice a week for 30-60 days. […] The data are expressed as the mean+/−SEM. Student's and Mann-Whitney tests were used to assess differences between means using the InStat software package. […] Analysis of lung metastasis was done in all the animals by counting metastasis in a stereomicroscope and by histochemical analysis of consecutive lung sections.
# T1 sequence (P09619 33-1106): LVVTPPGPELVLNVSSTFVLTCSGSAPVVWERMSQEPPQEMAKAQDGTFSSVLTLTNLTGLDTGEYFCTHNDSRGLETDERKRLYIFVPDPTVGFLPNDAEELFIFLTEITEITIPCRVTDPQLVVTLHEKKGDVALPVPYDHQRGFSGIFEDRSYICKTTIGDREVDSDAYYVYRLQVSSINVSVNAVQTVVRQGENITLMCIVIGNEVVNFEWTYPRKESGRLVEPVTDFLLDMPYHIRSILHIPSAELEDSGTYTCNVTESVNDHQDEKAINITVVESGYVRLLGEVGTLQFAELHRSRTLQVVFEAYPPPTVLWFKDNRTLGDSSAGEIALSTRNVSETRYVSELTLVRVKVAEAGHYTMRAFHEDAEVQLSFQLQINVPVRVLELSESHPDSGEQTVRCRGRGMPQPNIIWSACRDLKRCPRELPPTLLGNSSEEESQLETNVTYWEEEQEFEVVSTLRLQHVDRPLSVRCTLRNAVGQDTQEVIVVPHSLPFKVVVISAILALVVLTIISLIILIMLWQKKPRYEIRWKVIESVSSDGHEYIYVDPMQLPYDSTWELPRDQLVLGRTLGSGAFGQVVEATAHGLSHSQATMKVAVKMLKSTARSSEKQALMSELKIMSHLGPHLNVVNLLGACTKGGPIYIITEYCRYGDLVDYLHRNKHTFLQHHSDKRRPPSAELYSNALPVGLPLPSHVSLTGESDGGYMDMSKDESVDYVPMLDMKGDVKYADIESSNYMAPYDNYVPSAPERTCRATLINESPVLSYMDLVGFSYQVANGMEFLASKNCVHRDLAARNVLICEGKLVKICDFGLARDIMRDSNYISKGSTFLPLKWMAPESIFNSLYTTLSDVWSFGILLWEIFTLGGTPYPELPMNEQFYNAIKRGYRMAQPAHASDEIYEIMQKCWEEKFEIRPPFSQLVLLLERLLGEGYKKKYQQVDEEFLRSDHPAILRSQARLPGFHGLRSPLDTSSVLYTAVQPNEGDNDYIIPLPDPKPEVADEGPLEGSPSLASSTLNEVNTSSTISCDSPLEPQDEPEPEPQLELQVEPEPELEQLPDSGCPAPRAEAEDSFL
smiles,measurement,setting,value
"CCN(CC)CCNC(=O)c1c(C)[nH]c(/C=C2\C(=O)Nc3cc(-c4cccnc4)ccc32)c1C [Example 63, 2,4-Dimethyl-5-(2-oxo-6-pyridin-3-yl-1,2-dihydroindol-3-ylidenemethyl)-1H-pyrrole-3-carboxylic Acid (2-diethylaminoethyl)amide]",IC50,[1],< 0.78 µM
same,IC50,EGFR,> 100 µM
same,IC50,[2],> 100 µM
COc1ccc2c(c1)c(CC(=O)O)c(C)n2C(=O)c1ccc(Cl)cc1 [indomethacin],inhibition of tumor formation,"[3]; 2 mg/kg/day in the drinking water, near the maximum tolerated dose",77%
same,formation of lung metastasis,[4],ineffective
"Cc1cc(C)c(/C=C2\C(=O)N(CN3CCCC3)c3ccccc32)[nH]1 [Example 206, (3Z)-3-[(3,5-dimethyl-1H-pyrrol-2-yl)-methylidene]-1-(1-pyrrolidinylmethyl)-1,3-dihydro-2H-indol-2-one]",melting point,,129 to 132 °C
"Cc1cc(C)c(/C=C2\C(=O)N(CN3CCN(C)CC3)c3ccccc32)[nH]1 [Example 205, (3Z)-3-[(3,5-dimethyl-1H-pyrrol-2-yl)-methylidene]-1-[1-(4-methylpiperazinyl)methyl]-dihydro-2H-indol-2-one]",melting point,,160 to 164 °C
"CCOC(=O)CNC(=O)c1c[nH]c(/C=C2\C(=O)Nc3ccc(S(=O)(=O)NC)c(C)c32)c1C [Example 116, {[4-Methyl-5-(4-methyl-5-methylsulfamoyl-2-oxo-1,2-dihydro-indol-3-ylidenemethyl)-1H-pyrrole-3-carbonyl]-amino}-acetic Acid Ethyl Ester]",IC50,GST-Flk1,> 20 µM
same,IC50,[1],> 100 µM
same,IC50,[2],> 100 µM
same,IC50,human cdk2/cyclin A,< 0.0005 µM
"Cc1[nH]c(/C=C2\C(=O)Nc3ccc(-c4ccccc4)cc32)c(C)c1C(=O)NCCCn1ccnc1 [Example 58, 2,4-Dimethyl-5-(2-oxo-5-phenyl-1,2-dihydroindol-3-ylidenemethyl)-1H-pyrrole-3-carboxylic Acid (3-imidazol-1-ylpropyl)amide]",IC50,EGFR (A431 cell lysate),> 100 µM
same,IC50,EGFR,> 100 µM
same,IC50,[2],> 100 µM
Cc1ccc(-c2cc(C(F)(F)F)nn2-c2ccc(S(N)(=O)=O)cc2)cc1 [Celecoxib],effect on lung metastasis,Lewis Lung tumors; 160 ppm in the diet,did not affect
same,reduction of surface metastasis,Lewis Lung tumors; 480-3200 ppm in the diet,more than 50%
same,size of the metastasic lesions in the lung,Lewis Lung tumors; histopathological analysis,dose-dependently reduced
same,tumor Volume,"[3]; 10 ppm in the diet from day 10, day 14",0.124 mL
same,tumor Volume,"[3]; 10 ppm in the diet from day 10, day 22",0.25 mL
same,tumor Volume,"[3]; 10 ppm in the diet from day 10, day 28",0.36 mL
same,tumor Volume,"[3]; 10 ppm in the diet from day 10, day 35",0.57 mL
same,tumor Volume,"[3]; 10 ppm in the diet from day 10, day 42",0.89 mL
same,tumor Volume,"[3]; 10 ppm in the diet from day 10, day 50",1.49 mL
same,tumor Volume,"[3]; 40 ppm in the diet from day 10, day 14",0.125 mL
same,tumor Volume,"[3]; 40 ppm in the diet from day 10, day 22",0.19 mL
same,tumor Volume,"[3]; 40 ppm in the diet from day 10, day 28",0.27 mL
same,tumor Volume,"[3]; 40 ppm in the diet from day 10, day 35",0.4 mL
same,tumor Volume,"[3]; 40 ppm in the diet from day 10, day 42",0.68 mL
same,tumor Volume,"[3]; 40 ppm in the diet from day 10, day 50",1.04 mL
same,tumor Volume,"[3]; 160 ppm in the diet from day 10, day 14",0.120 mL
same,tumor Volume,"[3]; 160 ppm in the diet from day 10, day 22",0.14 mL
same,tumor Volume,"[3]; 160 ppm in the diet from day 10, day 28",0.21 mL
same,tumor Volume,"[3]; 160 ppm in the diet from day 10, day 35",0.3 mL
same,tumor Volume,"[3]; 160 ppm in the diet from day 10, day 42",0.49 mL
same,tumor Volume,"[3]; 160 ppm in the diet from day 10, day 50",0.8 mL
same,effect in combination with a cytotoxic agent (cyclophosphamide),"[3]; celecoxib in the diet, cytoxin i.p. 50 mg/kg on days 5, 7 and 9",positive benefit
"CNS(=O)(=O)c1ccc2c(c1)/C(=C/c1[nH]cc(C(=O)O)c1C)C(=O)N2 [Example 115, 4-Methyl-5-(5-methylsulfamoyl-2-oxo-1,2-dihydro-indol-3-ylidenemethyl)-1H-pyrrole-3-carboxylic Acid]",IC50,GST-Flk1,7.3 µM
same,IC50,[1],7.48 µM
same,IC50,[2],> 100 µM
same,IC50,human cdk2/cyclin A,0.006 µM
"CCN(CC)CCNC(=O)c1c(C)[nH]c(/C=C2\C(=O)Nc3cc(-c4cc(Cl)cc(Cl)c4)ccc32)c1C [Example 62, 5-[6-(3,5-Dichlorophenyl)-2-oxo-1,2-dihydroindol-3-ylidenemethyl]-2,4-dimethyl-1H-pyrrole-3-carboxylic Acid (2-diethylaminoethyl)amide]",IC50,EGFR (A431 cell lysate),> 100 µM
same,IC50,EGFR,> 100 µM
same,IC50,[2],> 100 µM
"NS(=O)(=O)c1ccc(-n2nc(C(F)(F)F)cc2-c2ccc(Cl)cc2)cc1 [SC-58236, 4-[5-(4-chorophenyl)-3-(trifluoromethyl)-1H-pyrazole-1-yl]benzenesulfonamide]",reduction of tumor volume,[3]; HT-29 assay A,89%
same,formation of lung metastasis,[4],completely inhibited
